One data set concerns the target T1, KtzI (Kutzneria sp. 744, UniProt A8CF85).
T1 sequence (A8CF85 1-424): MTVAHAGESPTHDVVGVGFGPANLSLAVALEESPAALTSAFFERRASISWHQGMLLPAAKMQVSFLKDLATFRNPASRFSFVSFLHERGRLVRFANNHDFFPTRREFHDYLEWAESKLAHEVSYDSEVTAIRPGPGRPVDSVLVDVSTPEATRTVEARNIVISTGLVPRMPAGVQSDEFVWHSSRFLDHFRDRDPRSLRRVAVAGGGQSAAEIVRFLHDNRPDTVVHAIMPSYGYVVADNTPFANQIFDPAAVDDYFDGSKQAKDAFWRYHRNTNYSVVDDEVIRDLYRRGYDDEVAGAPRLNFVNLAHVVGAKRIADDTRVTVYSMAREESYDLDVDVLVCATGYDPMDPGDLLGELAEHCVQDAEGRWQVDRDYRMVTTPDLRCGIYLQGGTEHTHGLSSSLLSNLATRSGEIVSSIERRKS
The experiment in a line: NADPH oxidation assay. Format: biochemical. The following applies: FAD, non-substrate effector (uncoupled NADPH oxidation).

Substrate in the data set “purified protein”: NCCC[C@H](N)C(=O)O
In words: purified protein. The following applies: FAD cofactor; NAD(P)H and O2 cosubstrates; apparent kcat.

As usually defined, the Km is the substrate concentration at which the rate is half of its maximum. For orientation: kcat means the maximal rate divided by the concentration of active sites.

As for `NCCCC[C@H](N)C(=O)O` [L-Lys], the NADPH oxidation assay result on KtzI was “L-Lys and D-Orn were observed to be non-substrate effectors of the enzyme”.
Turning to `NCCC[C@@H](N)C(=O)O` [D-Orn], the NADPH oxidation assay entry on KtzI was “L-Lys and D-Orn were observed to be non-substrate effectors of the enzyme”.

B1: KtzI (Kutzneria sp. 744) (protein)
chain: MTVAHAGESPTHDVVGVGFGPANLSLAVALEESPAALTSAFFERRASISWHQGMLLPAAKMQVSFLKDLATFRNPASRFSFVSFLHERGRLVRFANNHDFFPTRREFHDYLEWAESKLAHEVSYDSEVTAIRPGPGRPVDSVLVDVSTPEATRTVEARNIVISTGLVPRMPAGVQSDEFVWHSSRFLDHFRDRDPRSLRRVAVAGGGQSAAEIVRFLHDNRPDTVVHAIMPSYGYVVADNTPFANQIFDPAAVDDYFDGSKQAKDAFWRYHRNTNYSVVDDEVIRDLYRRGYDDEVAGAPRLNFVNLAHVVGAKRIADDTRVTVYSMAREESYDLDVDVLVCATGYDPMDPGDLLGELAEHCVQDAEGRWQVDRDYRMVTTPDLRCGIYLQGGTEHTHGLSSSLLSNLATRSGEIVSSIERRKS
On to B1, for which, in the data set “purified protein”, the Km was 91 ± 8 µM and the kcat is 0.116 ± 0.00217 s⁻¹.

These data come from PMC3463134 (Chembiochem : a European journal of chemical biology, 2012).
